Measured values as given in ChEMBL document CHEMBL3885881, “DrugMatrix”.

Species: Rattus norvegicus
Assay: DrugMatrix - Regimen: Daily Repeat
Assay type: toxicity, organism-based, Sprague-Dawley
Set-up: regimen Daily Repeat, gender Male, age 6-8 weeks
Conditions: in vivo, po, route oral GAVAGE, vehicle 100 % WATER; for ABSOLUTE BASOPHIL / ABSOLUTE EOSINOPHIL / ABSOLUTE LYMPHOCYTE / ABSOLUTE MONOCYTE / ABSOLUTE SEGMENTED NEUTROPHIL / BASOPHIL / EOSINOPHIL / ERYTHROCYTE COUNT / HEMATOCRIT / HEMOGLOBIN / LEUKOCYTE COUNT / LYMPHOCYTE / MEAN CORPUSCULAR HEMOGLOBIN / MEAN CORPUSCULAR HEMOGLOBIN CONCENTRATION / MEAN CORPUSCULAR VOLUME / MONOCYTE / NEUTROPHIL / NUCLEATED RED BLOOD CELLS / PLATELET COUNT: tissue Blood; for ALANINE AMINOTRANSFERASE / ALBUMIN / ALKALINE PHOSPHATASE / ASPARTATE AMINOTRANSFERASE / BLOOD UREA NITROGEN / CARBON DIOXIDE / CHLORIDE / CHOLESTEROL / CREATINE PHOSPHOKINASE / CREATININE / GLUCOSE / LACTATE DEHYDROGENASE / LIPASE / PHOSPHORUS / POTASSIUM / SODIUM / TOTAL BILIRUBIN / TOTAL PROTEIN / URIC ACID: tissue Plasma
[1] = 0 mg/kg, 72 h, dose level Control, time 3 day
[2] = 0 mg/kg, 120 h, dose level Control, time 5 day
[3] = 63 mg/kg, 72 h, dose level High, time 3 day

CNCCC=C1c2ccccc2CCc2ccccc21 [NORTRIPTYLINE]
ABSOLUTE BASOPHIL [1]: 0 CELLS/uL | ABSOLUTE EOSINOPHIL [1]: 123.17 CELLS/uL | ABSOLUTE LYMPHOCYTE [1]: 12677.83 CELLS/uL | ABSOLUTE MONOCYTE [1]: 66.17 CELLS/uL | ABSOLUTE SEGMENTED NEUTROPHIL [1]: 1149.5 CELLS/uL | BASOPHIL [1]: 0% | EOSINOPHIL [1]: 0.83% | ERYTHROCYTE COUNT [1]: 5.26 x10E6/uL | HEMATOCRIT [1]: 33.07% | HEMOGLOBIN [1]: 13.43 G/DL | LEUKOCYTE COUNT [1]: 14.02 x10E3/uL | LYMPHOCYTE [1]: 90.17% | MEAN CORPUSCULAR HEMOGLOBIN [1]: 25.62 pg | MEAN CORPUSCULAR HEMOGLOBIN CONCENTRATION [1]: 40.65 G/DL | MEAN CORPUSCULAR VOLUME [1]: 63 fL | MONOCYTE [1]: 0.5% | NEUTROPHIL [1]: 8.5% | NUCLEATED RED BLOOD CELLS [1]: 0.17 /100WBC | PLATELET COUNT [1]: 1142.83 x10E3/uL | ALANINE AMINOTRANSFERASE [1]: 45.17 u/L | ALBUMIN [1]: 3.78 G/DL | ALKALINE PHOSPHATASE [1]: 340.17 u/L | ASPARTATE AMINOTRANSFERASE [1]: 77.33 u/L | BLOOD UREA NITROGEN [1]: 14.67 mg/dL | CARBON DIOXIDE [1]: 28.67 mmol/L | CHLORIDE [1]: 101.17 MEQ/L | CHOLESTEROL [1]: 77.67 mg/dL | CREATINE PHOSPHOKINASE [1]: 263.67 u/L | CREATININE [1]: 0.15 mg/dL | GLUCOSE [1]: 169.33 mg/dL | LACTATE DEHYDROGENASE [1]: 230 u/L | LIPASE [1]: 9.67 u/L | PHOSPHORUS [1]: 11.8 mg/dL | POTASSIUM [1]: 5.91 MEQ/L | SODIUM [1]: 142.88 MEQ/L | TOTAL BILIRUBIN [1]: 0.22 mg/dL | TOTAL PROTEIN [1]: 5.7 G/DL | URIC ACID [1]: 1.35 mg/dL | ABSOLUTE BASOPHIL [2]: 0 CELLS/uL | ABSOLUTE EOSINOPHIL [2]: 125 CELLS/uL | ABSOLUTE LYMPHOCYTE [2]: 13809 CELLS/uL | ABSOLUTE MONOCYTE [2]: 351 CELLS/uL | ABSOLUTE SEGMENTED NEUTROPHIL [2]: 1581.67 CELLS/uL | BASOPHIL [2]: 0% | EOSINOPHIL [2]: 0.67% | ERYTHROCYTE COUNT [2]: 5.53 x10E6/uL | HEMATOCRIT [2]: 34.83% | HEMOGLOBIN [2]: 13.9 G/DL | LEUKOCYTE COUNT [2]: 15.87 x10E3/uL | LYMPHOCYTE [2]: 87.5% | MEAN CORPUSCULAR HEMOGLOBIN [2]: 25.25 pg | MEAN CORPUSCULAR HEMOGLOBIN CONCENTRATION [2]: 40.08 G/DL | MEAN CORPUSCULAR VOLUME [2]: 63.05 fL | MONOCYTE [2]: 2.17% | NEUTROPHIL [2]: 9.67% | NUCLEATED RED BLOOD CELLS [2]: 0 /100WBC | PLATELET COUNT [2]: 1044 x10E3/uL | ALANINE AMINOTRANSFERASE [2]: 50.67 u/L | ALBUMIN [2]: 4.33 G/DL | ALKALINE PHOSPHATASE [2]: 395 u/L | ASPARTATE AMINOTRANSFERASE [2]: 86 u/L | BLOOD UREA NITROGEN [2]: 15.33 mg/dL | CARBON DIOXIDE [2]: 29.33 mmol/L | CHLORIDE [2]: 101.5 MEQ/L | CHOLESTEROL [2]: 71.33 mg/dL | CREATINE PHOSPHOKINASE [2]: 323.17 u/L | CREATININE [2]: 0.18 mg/dL | GLUCOSE [2]: 145.67 mg/dL | LACTATE DEHYDROGENASE [2]: 389.5 u/L | LIPASE [2]: 9.83 u/L | PHOSPHORUS [2]: 11.35 mg/dL | POTASSIUM [2]: 6.39 MEQ/L | SODIUM [2]: 142.77 MEQ/L | TOTAL BILIRUBIN [2]: 0.18 mg/dL | TOTAL PROTEIN [2]: 6.1 G/DL | URIC ACID [2]: 1.52 mg/dL | ABSOLUTE BASOPHIL [3]: 0 CELLS/uL | ABSOLUTE EOSINOPHIL [3]: 63 CELLS/uL | ABSOLUTE LYMPHOCYTE [3]: 15345.67 CELLS/uL | ABSOLUTE MONOCYTE [3]: 215.33 CELLS/uL | ABSOLUTE SEGMENTED NEUTROPHIL [3]: 642.67 CELLS/uL | BASOPHIL [3]: 0% | EOSINOPHIL [3]: 0.33% | ERYTHROCYTE COUNT [3]: 6.2 x10E6/uL | HEMATOCRIT [3]: 38.33% | HEMOGLOBIN [3]: 14.97 G/DL | LEUKOCYTE COUNT [3]: 16.27 x10E3/uL | LYMPHOCYTE [3]: 94.33% | MEAN CORPUSCULAR HEMOGLOBIN [3]: 24.13 pg | MEAN CORPUSCULAR HEMOGLOBIN CONCENTRATION [3]: 39.07 G/DL | MEAN CORPUSCULAR VOLUME [3]: 61.83 fL | MONOCYTE [3]: 1.33% | NEUTROPHIL [3]: 4% | NUCLEATED RED BLOOD CELLS [3]: 1 /100WBC | PLATELET COUNT [3]: 1320 x10E3/uL | ALANINE AMINOTRANSFERASE [3]: 47.33 u/L | ALBUMIN [3]: 3.83 G/DL | ALKALINE PHOSPHATASE [3]: 416.67 u/L | ASPARTATE AMINOTRANSFERASE [3]: 75 u/L | BLOOD UREA NITROGEN [3]: 15 mg/dL | CARBON DIOXIDE [3]: 29.33 mmol/L | CHLORIDE [3]: 101 MEQ/L | CHOLESTEROL [3]: 74.67 mg/dL | CREATINE PHOSPHOKINASE [3]: 194 u/L | CREATININE [3]: 0.17 mg/dL | GLUCOSE [3]: 184 mg/dL | LACTATE DEHYDROGENASE [3]: 108 u/L | LIPASE [3]: 9 u/L | PHOSPHORUS [3]: 13.13 mg/dL | POTASSIUM [3]: 6.61 MEQ/L | SODIUM [3]: 143.73 MEQ/L | TOTAL BILIRUBIN [3]: 0.2 mg/dL | TOTAL PROTEIN [3]: 5.63 G/DL | URIC ACID [3]: 1.9 mg/dL
